Results taken from patent publication US6448024B1, “Method, reagent, cartridge, and device for determining fibrinogen” (Roche Diagnostics Corporation, priority 2000, dated 2002).
Values joined by “and” are separate entries in the source; they are usually repeats but may differ in a detail not shown here. Equal entries are not always repeated. Where two headings read alike, the source gives them in different places.

What was measured:
thrombin [1] = target: T1, thrombin (Bos taurus, UniProt P00735); assay: Cartridge assay (CoaguChek Plus), dried thrombin reagent in cartridge, inhibitor added to sample; format: biochemical, bovine; set-up: adding thrombin (Calbiochem 605157 bovine) to the HEPES Base solution; purchased Calbiochem 605157; details: for Concentration in reagent found to be effective: clotting time above 10 s and below 300 s for fibrinogen 50 to 400 mg/dL, under 10 s without inhibitor
Description: An assay cartridge as described above was constructed in which the reagent chamber was coated with a dried reagent containing thrombin in a HEPES buffer matrix. Liquid samples containing latex beads as blood cell surrogates and various levels of fibrinogen were introduced into the cartridge contained within a CoaguChek™ Plus device. Just prior to introducing a sample into the device, the particular thrombin modulator being tested was added to the sample. A variety of thrombin modulators were tested in this manner.
A HEPES Base solution, pH=7.4, was formed from the following ingredients:
A thrombin solution was formed by adding thrombin (Calbiochem 605157 bovine) to the HEPES Base solution, the resulting concentration being 67 units/mL thrombin.
A 10% solution by weight of polystyrene spheres with a mean diameter of 3.27 μm (Bang Laboratories P0032700) was utilized as a blood cell surrogate for plasma or synthetic blood solutions “plastic sphere solution”).
Test cartridges were prepared by applying 3 microliters of the thrombin solution thereto and drying the solution. For each sample, a fresh “thrombin” cartridge was utilized.
Cartridges containing the dried thrombin reagent were utilized for the following experiments. Standard solutions were prepared in accordance with Example 3, except the thrombin inhibitor concentration was fixed, and the fibrinogen concentrations varied.

thrombin [2] = assay: Wet screening assay for thrombin inhibitors with BBL Fibrometer (clotting time of fibrinogen solutions); format: biochemical, human plasma or bovine; details: for Found useful/effective as thrombin inhibitor in fibrometer wet assay: result in words; for Clotting Time (average), n = 2: 15 mg/mL benzamidine (final concentration); for Clot Time: 200 μL 0.5 mg/mL D.S. working solution, 50 μL 100 U/mL thrombin
Description: Materials and Methods: A phosphate buffered saline (PBS)-albumin solution was formed as follows:
2) 100 U/mL thrombin working solution; thrombin was obtained from Calbiochem (605206—human plasma, or 605157—bovine); and
3) fibrinogen working solutions having fibrinogen concentrations ranging from between 6 and 24 mg/mL fibrinogen; fibrinogen was obtained from Calbiochem (341578).
Screening Assay Procedure Using Fibrometer: A BBL Fibrometer was utilized to determine clotting times of test solutions. Test solutions were formed by adding the following components in the following order:
1. 200 μL D.S. working solution,
2. 50 μL thrombin working solution,
3. 50 μL fibrinogen working solution.
Immediately upon addition of the third component (i.e., the fibrinogen working solution), the fibrometer was activated, resulting in the probe being released into the vessel containing the reaction solution. The probe was agitated until sufficient resistance to motion was reached corresponding to a predetermined degree of clotting. A display indicated time from activation of the probe until the predetermined degree of clotting was reached.
Using the method of Example 1, 15 mg/mL benzamidine (Sigma B6506) in the PBS-albumin solution (final concentration) was contacted with samples containing varying amounts of fibrinogen.

thrombin [3] = assay: One or both of the two assays (wet and cartridge), summary of effective thrombin inhibitors; format: biochemical; details: wet and/or cartridge assay; result in words
thrombin [4] = target: T1, thrombin
Description: Additional cartridges were prepared in which specific inhibitors were combined with the thrombin solution, the thrombin inhibitor/thrombin solution deposited in the cartridge, and dried. […] The TDS reagent (3 microliters) was applied to cartridges and dried. Fibrinogen test samples for these cartridges comprised 40 μL of the fibrinogen working solution combined with 7 μL of the plastic sphere solution.

Q: What does the source list for Gly-Pro-Arg?
A: Clotting Time After Application To Inlet Port Of Cartridge Containing Thrombin Reagent (thrombin [1]; […] Gly-Pro-Arg peptide, fibrinogen 100 mg/mL (so in the source)): 239.6 s; Clotting Time After Application To Inlet Port Of Cartridge Containing Thrombin Reagent (thrombin [1]; […] Gly-Pro-Arg peptide, fibrinogen 102 mg/mL (so in the source)): 44.1 s; Clotting Time After Application To Inlet Port Of Cartridge Containing Thrombin Reagent (thrombin [1]; […] Gly-Pro-Arg peptide, fibrinogen 204 mg/mL (so in the source)): 9.9 s

Q: dextran sulfate was tested. Which “Found useful/effective as thrombin inhibitor in fibrometer wet assay” value (thrombin [2]; listed as dextran sulfate (50,000 Da—Dextralip 50)) did it give?
A: effective

Q: Which results are given for `N=C(N)c1ccccc1` [benzamidine]?
A: Thrombin inhibitor found to be effective (thrombin [3]): effective; Clotting Time (average), n = 2 (thrombin [2]; sample fibrinogen 100 mg/dL): 242 s; Clotting Time (average), n = 2 (thrombin [2]; sample fibrinogen 200 mg/dL): 139 s; Clotting Time (average), n = 2 (thrombin [2]; sample fibrinogen 400 mg/dL): 93 s

Q: Gly-Pro-Ala was tested. Which “Thrombin inhibitor found to be effective” value (thrombin [3]) did it give?
A: effective

Q: With `O=C(NCCCNC(=O)[C@H](OS(=O)(=O)O)[C@@H](OS(=O)(=O)O)[C@H](O[C@@H]1O[C@H](COS(=O)(=O)O)[C@H](OS(=O)(=O)O)[C@H](OS(=O)(=O)O)[C@H]1OS(=O)(=O)O)[C@@H](COS(=O)(=O)O)OS(=O)(=O)O)[C@H](OS(=O)(=O)O)[C@@H](OS(=O)(=O)O)[C@H](O[C@@H]1O[C@H](COS(=O)(=O)O)[C@H](OS(=O)(=O)O)[C@H](OS(=O)(=O)O)[C@H]1OS(=O)(=O)O)[C@@H](COS(=O)(=O)O)OS(=O)(=O)O` [Aprosulate, aprosulate] as the molecule, how does the “Thrombin inhibitor found to be effective” value (thrombin [3]) read?
A: effective

Q: What about the “Average Clotting Time After Application To Inlet Port Of Cartridge (n = 2)” value (thrombin [4]; TA reagent dried in cartridge (67 units/mL thrombin, 20 10 g/dL aprosulate as printed), fibrinogen 25.5 mg/mL (so in the source)) of the same molecule?
A: 275 s

Q: What about the “Average Clotting Time After Application To Inlet Port Of Cartridge (n = 2)” value (thrombin [4]; TA reagent dried in cartridge, fibrinogen 102 mg/mL (so in the source)) of the same molecule?
A: 134 s

Q: What about the “Average Clotting Time After Application To Inlet Port Of Cartridge (n = 2)” value (thrombin [4]; TA reagent dried in cartridge, fibrinogen 204 mg/mL (so in the source)) of the same molecule?
A: 41 s

Q: And the “Average Clotting Time After Application To Inlet Port Of Cartridge (n = 2)” value (thrombin [4]; TA reagent dried in cartridge, fibrinogen 408 mg/mL (so in the source))?
A: 24 s

Q: And the “Clotting Time After Application To Inlet Port Of Cartridge Containing Thrombin Reagent” value (thrombin [1]; 43 mg/mL aprosulate, fibrinogen 76 mg/mL (so in the source))?
A: 149.1 s

Q: What about the “Clotting Time After Application To Inlet Port Of Cartridge Containing Thrombin Reagent” value (thrombin [1]; 43 mg/mL aprosulate, fibrinogen 153 mg/mL (so in the source)) of the same molecule?
A: 85.5 s

Q: And the “Clotting Time After Application To Inlet Port Of Cartridge Containing Thrombin Reagent” value (thrombin [1]; 43 mg/mL aprosulate, fibrinogen 306 mg/mL (so in the source))?
A: 21.4 s

Q: Which “Thrombin inhibitor found to be effective” value (thrombin [3]) does the source give for Gly-Gly-Arg here?
A: effective

Q: What about the “Concentration in reagent found to be effective” value (thrombin [1]) of the same molecule?
A: 0.85 mg/mL and 1.3 mg/mL

Q: With Polyanetholesulfate as the molecule, how does the “Thrombin inhibitor found to be effective” value (thrombin [3]) read?
A: effective

Q: Which results are given for `Cn1c(=O)c2c(ncn2C)n(C)c1=O` [Caffeine, caffeine]?
A: Thrombin inhibitor found to be effective (thrombin [3]): effective; Clotting Time After Application To Inlet Port Of Cartridge Containing Thrombin Reagent (thrombin [1]; […] caffeine, fibrinogen 100 mg/mL (so in the source)): 88.8 s; Clotting Time After Application To Inlet Port Of Cartridge Containing Thrombin Reagent (thrombin [1]; […] caffeine, fibrinogen 200 mg/mL (so in the source)): 30.0 s; Clotting Time After Application To Inlet Port Of Cartridge Containing Thrombin Reagent (thrombin [1]; […] caffeine, fibrinogen 400 mg/mL (so in the source)): 24.8 s

Q: With Polyvinylsulfate as the molecule, how does the “Thrombin inhibitor found to be effective” value (thrombin [3]) read?
A: effective

Q: Which “Concentration in reagent found to be effective” value (thrombin [1]) does the source give for “dextran sulfate [Dextran Sulfate-5,000 Da]” here?
A: 5 mg/mL

Q: With “dextran sulfate [dextran sulfate (5,000-50,000 MW)]” as the molecule, how does the “Thrombin inhibitor found to be effective” value (thrombin [3]) read?
A: effective

Q: “dextran sulfate [dextran sulfate (10,000 Da)]” was tested. Which “Clot Time” value (thrombin [2]; final assay fibrinogen 100 mg/dL, about 0.6 s without dextran sulfate) did it give?
A: 22.8 s

Q: And the “Clot Time” value (thrombin [2]; final assay fibrinogen 200 mg/dL)?
A: 11.8 s

Q: And the “Clot Time” value (thrombin [2]; final assay fibrinogen 250 mg/dL)?
A: 9.8 s

Q: And the “Clot Time” value (thrombin [2]; final assay fibrinogen 400 mg/dL)?
A: 1.2 s

Q: And the “Found useful/effective as thrombin inhibitor in fibrometer wet assay” value (thrombin [2])?
A: useful thrombin inhibitor reagent

Q: What about the “Clotting Time After Application To Inlet Port Of Cartridge” value (thrombin [4]; TDS reagent dried in cartridge (67 units/mL thrombin, 57 mg/mL dextran sulfate 10,000 Da), fibrinogen 198 mg/mL (so in the source)) of the same molecule?
A: 40.0 s

Q: And the “Clotting Time After Application To Inlet Port Of Cartridge” value (thrombin [4]; TDS reagent dried in cartridge (67 units/mL thrombin, 57 mg/mL dextran sulfate 10,000 Da), fibrinogen 396 mg/mL (so in the source))?
A: 26.7 s

Q: What about the “Clotting Time After Application To Inlet Port Of Cartridge” value (thrombin [4]; TDS reagent dried in cartridge (67 units/mL thrombin, 57 mg/mL dextran sulfate 10,000 Da, 3 microliters), fibrinogen 99 mg/mL (so in the source)) of the same molecule?
A: 69.6 s

Q: And the “Clotting Time After Application To Inlet Port Of Cartridge Containing Thrombin Reagent” value (thrombin [1]; 21 mg/mL dextran sulfate (10,000 Da), fibrinogen 100 mg/mL (so in the source) in combined assay solution)?
A: 157.5 s

Q: And the “Clotting Time After Application To Inlet Port Of Cartridge Containing Thrombin Reagent” value (thrombin [1]; 21 mg/mL dextran sulfate (10,000 Da), fibrinogen 102 mg/mL (so in the source))?
A: 81.9 s

Q: And the “Clotting Time After Application To Inlet Port Of Cartridge Containing Thrombin Reagent” value (thrombin [1]; 21 mg/mL dextran sulfate (10,000 Da), fibrinogen 204 mg/mL (so in the source))?
A: 28.6 s
